According to PubChem BioAssay (NCI):
“And” between values parts separate entries of the source, which are not always exact repeats. Equal entries are not always repeated.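 Results reflect a 48-hour exposure of cells in 96-well plates to compound at five concentrations. GI50 is the concentration that inhibits growth by half. TGI is the concentration that stops growth completely.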

Assays:
Test in all cases: DTP human tumour cell line panel, 48 h
[1] = system: KM12 colon
[2] = system: SK-MEL-28 melanoma
[3] = system: SK-MEL-5 melanoma
[4] = system: K-562 leukemia
[5] = system: HCC-2998 colon
[6] = system: NCI-H226 lung
[7] = system: HS 578T breast
[8] = system: SF-268 CNS
[9] = system: ACHN renal
[10] = system: A549 NSCLC

SMILES: C/C(O)=C(\C#N)C(=O)Nc1ccc(C(F)(F)F)cc1
- GI50 [1]: 23.9 µM
- TGI [1]: > 100 µM
- GI50 [2]: 69.5 µM
- TGI [2]: > 100 µM
- GI50 [3]: 15.9 µM
- TGI [3]: > 100 µM
- GI50 [4]: 8.13 µM
- TGI [4]: > 100 µM
- GI50 [5]: 45.2 µM
- TGI [5]: > 100 µM
- GI50 [6]: 98 µM
- TGI [6]: > 100 µM
- GI50 [7]: 39.1 µM
- TGI [7]: > 100 µM
- GI50 [8]: 15 µM
- TGI [8]: > 100 µM
- GI50 [9]: 45.7 µM
- TGI [9]: > 100 µM
- GI50 [10]: 26.5 µM
- TGI [10]: > 100 µM

SMILES: CCOC(=O)C#Cc1c(C(=O)OCC)nnn1Cc1ccc([N+](=O)[O-])cc1
- GI50 [1]: 10.2 µM
- TGI [1]: 24.1 µM
- GI50 [2]: 3.03 µM
- TGI [2]: 10.2 µM
- GI50 [3]: 8.86 µM
- TGI [3]: 21 µM
- GI50 [4]: 1.32 µM
- TGI [4]: 10.7 µM
- GI50 [5]: 18.3 µM
- TGI [5]: 32.2 µM
- GI50 [6]: 1.72 µM
- TGI [6]: 3.33 µM
- GI50 [7]: 19.4 µM
- TGI [7]: 61.4 µM
- GI50 [8]: 7.49 µM
- TGI [8]: 21.5 µM
- GI50 [9]: 1.89 µM
- TGI [9]: 3.45 µM
- GI50 [10]: 20.6 µM
- TGI [10]: 34.8 µM

SMILES: CC([C@H]1CCC2C3CCC4C[C@@H](N)CC[C@]4(C)C3CC[C@@]21C)N(C)C (stereo not given in full)
- GI50 [1]: 7.55 µM
- TGI [1]: 21.4 µM
- GI50 [2]: 1.91 µM
- TGI [2]: 3.66 µM
- GI50 [3]: 1.95 µM
- TGI [3]: 5.23 µM
- GI50 [4]: 2.27 µM
- TGI [4]: 7.34 µM
- GI50 [5]: 12.8 µM
- TGI [5]: 26.3 µM
- GI50 [6]: 12.4 µM
- TGI [6]: > 45.9 µM
- GI50 [7]: 3.35 µM
- TGI [7]: 16.1 µM
- GI50 [8]: 3.34 µM
- TGI [8]: 11.7 µM
- GI50 [9]: 8.99 µM
- TGI [9]: 21.6 µM
- GI50 [10]: 8.45 µM
- TGI [10]: 24.7 µM

SMILES: O=C(NO)[C@@H](Cc1ccccc1)NS(=O)(=O)c1ccc(-c2ccccc2)cc1
- GI50 [1]: > 25 µM
- TGI [1]: > 25 µM
- GI50 [2]: > 25 µM
- TGI [2]: > 25 µM
- GI50 [3]: 20.6 µM
- TGI [3]: > 25 µM
- GI50 [4]: 10.1 µM
- TGI [4]: > 25 µM
- GI50 [5]: > 25 µM
- TGI [5]: > 25 µM
- GI50 [6]: > 25 µM
- TGI [6]: > 25 µM
- GI50 [7]: > 25 µM
- TGI [7]: > 25 µM
- GI50 [8]: 11.6 µM
- TGI [8]: > 25 µM
- GI50 [9]: 12.2 µM
- TGI [9]: > 25 µM
- GI50 [10]: > 25 µM
- TGI [10]: > 25 µM

SMILES: Oc1c(Cl)cc(Cl)cc1C(c1cc(Cl)cc(Cl)c1O)C(Cl)(Cl)Cl
- GI50 [1]: 2.83 µM
- TGI [1]: 10.1 µM
- GI50 [2]: 4.18 µM
- TGI [2]: 17.8 µM
- GI50 [3]: 1.21 µM
- TGI [3]: 2.73 µM
- GI50 [4]: 1.1 µM
- TGI [4]: 20.4 µM
- GI50 [5]: 1.91 µM
- TGI [5]: 5.08 µM
- GI50 [6]: 2.18 µM
- TGI [6]: 5.89 µM
- GI50 [7]: 2.28 µM
- TGI [7]: 10.4 µM
- GI50 [8]: 2.34 µM
- TGI [8]: 13.8 µM
- GI50 [9]: 2.82 µM
- TGI [9]: 12 µM
- GI50 [10]: 3.77 µM
- TGI [10]: 14.4 µM

SMILES: COc1cc(C2=N/C(=C/c3cccs3)C(=O)O2)cc(OC)c1OC
- TGI [1]: > 100 µM
- TGI [2]: > 100 µM
- TGI [3]: > 100 µM
- TGI [4]: > 100 µM
- TGI [5]: > 100 µM
- TGI [6]: > 100 µM
- TGI [7]: > 100 µM
- TGI [8]: > 100 µM
- TGI [9]: > 100 µM
- TGI [10]: > 100 µM

SMILES: CCn1c(-c2nonc2N)nc2c(C#CC(C)(C)O)ncc(OC[C@H]3CCCNC3)c21
- GI50 [1]: 4.54 µM
- TGI [1]: 63.8 µM
- GI50 [2]: 11.7 µM
- TGI [2]: 27.1 µM
- GI50 [3]: 14.3 µM
- TGI [3]: 31.2 µM
- GI50 [4]: 11.4 µM
- TGI [4]: > 89.2 µM
- GI50 [5]: 21.2 µM
- TGI [5]: > 100 µM
- GI50 [6]: 21.1 µM
- TGI [6]: 52.2 µM
- GI50 [7]: 2.58 µM
- TGI [7]: 59.5 µM
- GI50 [8]: 16.1 µM
- TGI [8]: 37.4 µM
- GI50 [9]: 25.7 µM
- TGI [9]: > 100 µM
- GI50 [10]: 15.6 µM
- TGI [10]: 62.3 µM

SMILES: CCCN(CCC)c1ccc(/C=N/NC(=O)c2cccnc2)c(OC)c1
- GI50 [1]: 21.3 µM
- TGI [1]: 68.3 µM
- GI50 [2]: 26.6 µM
- TGI [2]: 98 µM
- GI50 [3]: 14.3 µM
- TGI [3]: 28.1 µM
- GI50 [4]: 22.2 µM
- TGI [4]: > 100 µM
- GI50 [5]: 26.6 µM
- TGI [5]: 98.4 µM
- GI50 [6]: 32 µM
- TGI [6]: > 100 µM
- GI50 [7]: 21.7 µM
- TGI [7]: 99.3 µM
- GI50 [8]: 26 µM
- TGI [8]: 88.7 µM
- GI50 [9]: 28.8 µM
- TGI [9]: > 100 µM
- GI50 [10]: 26.6 µM
- TGI [10]: > 100 µM

SMILES: COc1cc(-c2csc(NC(=O)Nc3ccc(C(F)(F)F)cc3)n2)cc(OC)c1OC
- GI50 [1]: 2.09 µM
- TGI [1]: 7.48 µM
- GI50 [2]: 2.22 µM
- TGI [2]: 5.79 µM
- GI50 [3]: 1.62 µM
- TGI [3]: 3 µM
- GI50 [4]: 3.04 µM
- TGI [4]: > 100 µM
- GI50 [5]: 2.71 µM
- TGI [5]: 9.34 µM
- GI50 [6]: 2.35 µM
- TGI [6]: 8.4 µM
- GI50 [7]: 2.17 µM
- TGI [7]: 5.47 µM
- GI50 [8]: 2.92 µM
- TGI [8]: 13.7 µM
- GI50 [9]: 2.11 µM
- TGI [9]: 6.13 µM
- GI50 [10]: 2.74 µM
- TGI [10]: 11.7 µM

SMILES: Fc1cccc(-n2ccc(-c3ccccc3)nc2=S)c1
- GI50 [1]: 18.6 µM
- TGI [1]: 42.8 µM
- GI50 [2]: 71.9 µM
- TGI [2]: > 100 µM
- GI50 [3]: 23.1 µM
- TGI [3]: > 73.1 µM
- GI50 [4]: 43 µM
- TGI [4]: > 100 µM
- GI50 [5]: 18.1 µM
- TGI [5]: 33.4 µM
- GI50 [6]: 18.1 µM
- TGI [6]: 36.5 µM
- GI50 [7]: 17.7 µM
- TGI [7]: 37.4 µM
- GI50 [8]: 32.3 µM
- TGI [8]: > 100 µM
- GI50 [9]: 16.7 µM
- TGI [9]: 30.4 µM
- GI50 [10]: 31.5 µM
- TGI [10]: > 87.3 µM

SMILES: COc1cc2nccc(Oc3ccc(NC(=O)Nc4cc(C)on4)c(Cl)c3)c2cc1OC
- GI50 [1]: 0.178 µM and 0.25 µM
- TGI [1]: > 66.6 µM
- GI50 [2]: 3.76 µM and 4.31 µM
- TGI [2]: 19.3 µM and > 10 µM
- GI50 [3]: 2.04 µM and 2.81 µM
- TGI [3]: 5.69 µM and > 10 µM
- GI50 [4]: 0.0349 µM and 0.0609 µM
- TGI [4]: > 100 µM
- GI50 [5]: 9 µM and > 10 µM
- TGI [5]: > 100 µM
- GI50 [6]: 0.795 µM and 0.438 µM
- TGI [6]: 35.2 µM and > 10 µM
- GI50 [7]: 1.48 µM and 1.54 µM
- TGI [7]: 5.78 µM and > 10 µM
- GI50 [8]: 2.58 µM and 3.09 µM
- TGI [8]: > 55.3 µM
- GI50 [9]: 3.28 µM and 3.72 µM
- TGI [9]: 22.3 µM and > 10 µM
- GI50 [10]: 3.15 µM and 4.31 µM
- TGI [10]: 19.1 µM and > 10 µM

SMILES: CC(CN(C)C)Oc1ccccc1NC1=C(Cl)C(=O)C(Nc2ccccc2OC(C)CN(C)C)=C(Cl)C1=O (stereo not given)
- GI50 [1]: 1.2 µM
- TGI [1]: 2.57 µM
- GI50 [2]: 1.5 µM
- TGI [2]: 2.87 µM
- GI50 [3]: 1.56 µM
- TGI [3]: 2.94 µM
- GI50 [4]: 0.21 µM
- TGI [4]: 0.507 µM
- GI50 [5]: 1.29 µM
- TGI [5]: 2.91 µM
- GI50 [6]: 1.41 µM
- TGI [6]: 2.91 µM
- GI50 [7]: 1.8 µM
- TGI [7]: 4.53 µM
- GI50 [8]: 1.49 µM
- TGI [8]: 3.06 µM
- GI50 [9]: 0.174 µM
- TGI [9]: 0.312 µM
- GI50 [10]: 1.7 µM
- TGI [10]: 3.24 µM
